Assay results reported in ChEMBL document CHEMBL1136476, “Catechol-substituted L-chicoric acid analogues as HIV integrase inhibitors” (Bioorg Med Chem Lett, 2003).

Each compound was assayed against Human immunodeficiency virus type 1 integrase (Human immunodeficiency virus 1, UniProt Q7ZJM1) (assay: Inhibitory activity against HIV-1 integrase).
Sequence of Human immunodeficiency virus type 1 integrase (Q7ZJM1 whole entry): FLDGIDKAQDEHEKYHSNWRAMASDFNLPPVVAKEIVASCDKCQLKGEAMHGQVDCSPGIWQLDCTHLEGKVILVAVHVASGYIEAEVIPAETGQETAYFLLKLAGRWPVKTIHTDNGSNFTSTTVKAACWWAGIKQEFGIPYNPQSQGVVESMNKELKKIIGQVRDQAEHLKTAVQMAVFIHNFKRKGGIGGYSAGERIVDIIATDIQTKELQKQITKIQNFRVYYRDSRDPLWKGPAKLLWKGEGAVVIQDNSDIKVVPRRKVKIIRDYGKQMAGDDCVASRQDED

`O=C(O)C(Cc1ccc(O)c(O)c1)C(Cc1ccc(O)c(O)c1)C(=O)O` (stereo not given) and `O=C(O)C(c1ccc(O)c(O)c1)C(C(=O)O)c1ccc(O)c(O)c1` (stereo not given) are within 1.5-fold of each other in IC50: 19.1 µM for the first, 23.6 µM for the second.

`COc1ccc(CC(C(=O)O)C(Cc2ccc(OC)c(OC)c2)C(=O)O)cc1OC` (stereo not given) and `COc1ccc(C(C(=O)O)C(C(=O)O)c2ccc(OC)c(OC)c2)cc1OC` (stereo not given) cannot be ordered by IC50: greater than 150 µM for the first, greater than 150 µM for the second.

Going from `O=C1NC(=O)C(c2ccc(O)c(O)c2)=C1c1ccc(O)c(O)c1` to `O=C1OC(=O)C(c2ccc(O)c(O)c2)=C1c1ccc(O)c(O)c1`, the IC50 falls from 15.5 µM to 3.8 µM (4.1-fold). The second is the more potent here.

`COc1ccc(C2=C(c3ccc(OC)c(OC)c3)C(=O)NC2=O)cc1OC` and `COc1ccc(C2=C(c3ccc(OC)c(OC)c3)C(=O)OC2=O)cc1OC` cannot be ordered by IC50: greater than 150 µM for the first, greater than 150 µM for the second.

Compared with `O=C(O)c1[nH]c(C(=O)O)c(-c2ccc(O)c(O)c2)c1-c1ccc(O)c(O)c1`, `COc1ccc(-c2c(C(=O)O)[nH]c(C(=O)O)c2-c2ccc(OC)c(OC)c2)cc1OC` is higher in IC50: 5.3 µM for the first, greater than 150 µM for the second. The first is the more potent here.
